Columns and labels:
Assay type in all cases: in vivo
[1] = system: children with ADHD and allergic rhinitis; assay: STUDY A: ADHD measures, Conners' Rating Scale t-scores; conditions: po qam for 2 weeks; for hyperactivity t-scores (FIG. 1): evaluation of the ADHD parameters
Protocol: (§1) In general, two studies were conducted to better understand the association between the allergy/immune system and the central nervous system. STUDY A, tested the effects of cetirizine (namely ZYRTEC), cetirizine and methylphenidate (namely RITALIN SR), and methylphenidate, versus placebo on attention, memory, and behavior in children with ADHD and allergic rhinitis. STUDY B assessed NGF response to cetirizine and methylphenidate treatment in children with ADHD and allergic rhinitis.
(§2) The individuals chosen to be a part of these studies had the following characteristics:
(§3) All subjects were randomized into one of four treatment groups as follows:
(§4) 1) cetirizine alone: 10 mg po qam for 2 weeks;
(§5) 2) Combination of cetirizine and methylphenidate: 10 mg po qam RITALIN SR (20 mg if <65 kg; 40 mg if ≧65 kg) po qam for 2 weeks;
(§6) 3) Methylphenidate alone: (20 mg if <65 kg; 40 mg if ≧65 kg) po qam for 2 weeks; and
5) Conners' Rating Scale—Revised, (CRS)

[2] = system: children with ADHD and allergic rhinitis; assay: STUDY A: allergic rhinitis measures (rhinoconjunctivitis symptoms, RQLQ); conditions: children 8-18 years with ADHD and seasonal allergic rhinitis; po qam for 2 weeks
Protocol: as §1, §2, §3, §4, §5, §6
1) Rhinoconjunctivitis Symptoms
2) Total Symptom Severity Complex, (TSSC)
3) Adolescent Rhinoconjunctivitis Quality of Life Questionnaire, (RQLQ)

NGF = assay: STUDY B: serum NGF assay by ELSA (Enzyme-Linked Immunosorbent Assay); conditions: children with ADHD and allergies; po qam for 2 weeks; NGF highest on placebo
Protocol: as §1, §2, §3, §4, §5
3) Methylphenidate alone: (20 mg if <65 kg; 40 mg if ≧65 kg) po qam for 2 weeks; and […]

Structure (SMILES)	hyperactivity t-scores (FIG. 1) [1]	parental Conner's report: ADHD score [1]	parental Conner's report: hyperactivity score [1]	parental Conner's report: inattention score [1]	parental Conner's report: oppositional score [1]	RQLQ emotional symptoms, change from baseline [2]	RQLQ nasal symptoms [2]	rhinoconjuctivitis quality of life scores [2]	serum NGF level versus placebo (NGF)
O=C(O)COCCN1CCN(C(c2ccccc2)c2ccc(Cl)cc2)CC1 (stereo not drawn) [cetirizine]	no difference was noted	no difference was recorded	no difference was recorded	no difference was recorded	no difference was recorded	similar	methylphenidate had a superior effect compared to cetirizine	methylphenidate had a superior effect compared to cetirizine	downregulated to the same extent
COC(=O)C(c1ccccc1)C1CCCCN1 (stereo not drawn) [methylphenidate]	no difference was noted	no difference was recorded	no difference was recorded	no difference was recorded	no difference was recorded	similar	superior effect compared to cetirizine	superior effect compared to cetirizine	downregulated to the same extent

— patent US20100069402A1, “Treatment of Behavioral Disorders” (priority 2004, published 2010)
